The conditions of data set [1]: Table 1; cited from earlier work.
Data set [2] relates to DRGs, motor neurons, and Schwann cells. To be noted: 72 h; for Measures in vitro tolerated concentrations on PN cells: rat. The procedure: It is contemplated that delivery of immunosuppressive agents function within a favorable therapeutic window. PNs are comprised of three major nervous system cell types, motor neurons, sensory neurons, and Schwann cells. […] FIG. 1B illustrates data regarding the toxicity of tacrolimus to DRGs, motor neurons, and Schwann cells. FIG. 1C illustrates data regarding the toxicity of prednisolone to DRGs, motor neurons, and Schwann cells.
Cells (DRGs, motor neurons, and Schwann cells) were cultured for 72 hours in various concentration of the immunosuppressive drugs and viability was evaluated using the Alamar blue viability assay. ISV's were diluted into media using a maximum of 1% dimethylsulfoxide (DMSO).
FIG. 2B illustrates data regarding the viability of DRGs, motor neurons, and Schwann cells cultured in about 10 μM tracrolimus with differing concentrations of prednisolone.

In data set [3] the test system is immune cells. The settings on record: cited from earlier work; for in vitro effective concentration on immune cells: Table 1.

Structures are written as SMILES.

With `C[C@]12C=CC(=O)C=C1CC[C@@H]1[C@@H]2[C@@H](O)C[C@@]2(C)[C@H]1CC[C@]2(O)C(=O)CO` [Prednisolone, prednisolone], in data set [1], the “Effective clinical plasma concentration” value is given as 277 nM. In addition, in data set [2], the “tolerated by the cells at doses up to” value is reported as “up to 200 μM” and the “Measures in vitro tolerated concentrations on PN cells” value amounted to 200 µM. In data set [3], the “in vitro effective concentration on immune cells” value was 240 nM; the “effective dose for inhibiting activation and proliferation of immune cells” value is recorded as “greater than 240 μM”.
For `C=CC[C@@H]1/C=C(\C)C[C@H](C)C[C@H](OC)[C@H]2O[C@@](O)(C(=O)C(=O)N3CCCC[C@H]3C(=O)O[C@H](/C(C)=C/[C@@H]3CC[C@@H](O)[C@H](OC)C3)[C@H](C)[C@@H](O)CC1=O)[C@H](C)C[C@@H]2OC` [Tacrolimus, tacrolimus], the “Effective clinical plasma concentration” value in data set [1] is on record as 21 nM. Also, in data set [2], the “tolerated by the cells at doses up to” value lay within 10 to 25 µM and the “Measures in vitro tolerated concentrations on PN cells” value fell in the range of 10 to 25 µM. Also, in data set [3], the “in vitro effective concentration on immune cells” value is 0.5 to 1.0 nM; the “effective dose for inhibiting activation and proliferation of immune cells” value was 50 to 100 µM.

Values taken from US20200139012A1, “METHODS AND MATERIALS FOR IMMUNOMODULATION OF TISSUE GRAFTS” (UNIVERSITY OF WYOMING, priority 2018, published 2020).
